Test system: previously untreated advanced renal cell carcinoma
Test: IMmotion151 (NCT02420821) Phase 3 randomized trial, atezolizumab plus bevacizumab versus sunitinib, clinical outcomes by biomarker subgroup
Assay type: in vivo, human
Text: IMmotion151 (NCT02420821) was a multicenter, open-label, Phase 3, randomized controlled trial of atezolizumab plus bevacizumab (n=454) versus sunitinib (n=461) in patients with previously untreated advanced RCC (Rini et al. Lancet. 393: 2404-2415 (2019)). The study design, methods, and primary clinical findings from IMmotion151 have been reported previously (Rini et al. Lancet. 393: 2404-2415 (2019)).
Briefly, previously untreated patients with unresectable locally advanced or metastatic renal cell carcinoma with any component of clear-cell or sarcomatoid histology were randomized to receive atezolizumab 1200 mg+bevacizumab 15 mg/kg (atezolizumab+bevacizumab) once every 3 weeks (n=454) or sunitinib 50 mg once daily (n=461; 4 weeks on, 2 weeks off). The co-primary endpoints were investigator-assessed progression-free survival (PFS) in patients with ≥1% expressing PD-L1 on immune cells (IC, PD-L1^+) and overall survival (OS) in the intent-to-treat (ITT) population.
IMmotion151 (NCT02420821) was a multicenter, open-label, Phase 3, randomized controlled trial of atezolizumab plus bevacizumab (n=454) vs. sunitinib (n=461) in patients with previously untreated advanced renal cell carcinoma (Rini et al. Lancet. 393: 2404-2415 (2019)).
RNA-seq data from the randomized Phase II trial IMmotion150 were processed as described above. Transcriptional signature scores were derived from T-effector and angiogenesis signatures (McDermott et al. Nat Med. 24: 749-757 (2018)) for each sample, and hazard ratios were calculated at various gene expression scores. Gene expression score cutoffs of 2.93 (40% prevalence) and 5.82 (50% prevalence) were defined for the T-effector and angiogenesis signatures in IMmotion150 based on a combination of prevalence and hazard ratio plateauing. These absolute thresholds were prospectively applied to the IMmotion151 data to classify tumors with high and low T-effector and angiogenesis signatures. Cox-proportional hazard regression models were fit to compare PFS in atezolizumab+bevacizumab or sunitinib-treated patients in gene expression high and low subsets.
All analyses were conducted using Rv3.6.1. Unless otherwise stated, all comparisons for continuous variables use the two-sided Mann-Whitney test (R function wilcox.test) for two groups and the Kruskal-Wallis test (R function kruskal.test) for more than two groups. Dunn's post-hoc test was applied with Benjamini-Hochberg multiple testing correction for pairwise comparisons. For categorical variables, Pearson's Chi-squared test with continuity correction was used (R function chisq.test). Unless otherwise stated, false discovery rate (FDR)-adjusted p-values are reported. *: p<0.05; **: p<0.01; ***: p<0.001. Survival analyses were conducted using Cox-proportional hazard models using the R survival package (v 3.1.7). Log-rank p-values were reported for survival analyses including more than two groups. For all boxplots, the horizontal line represents the median. The lower and upper hinges correspond to the first and third quartiles. The upper whisker extends from the hinge to the largest value no further than 1.5*IQR from the hinge (where IQR is the inter-quartile range, or distance between the first and third quartiles). The lower whisker extends from the hinge to the smallest value at most 1.5*IQR of the hinge.

[1] = tumors with CDKN2A/B alterations

## CCN(CC)CCNC(=O)c1c(C)[nH]c(/C=C2\C(=O)Nc3ccc(F)cc32)c1C [sunitinib]
PBRM1 non-mutant tumors
  ORR: 27%
  mPFS: 6.9 months
Proliferative cluster (#5)
  ORR: 3.1%
Stromal/Proliferative cluster (printed #5)
  mPFS: 5.2 months
T-effector/Proliferative cluster (#4)
  objective response rate (ORR): 19.4%
loss-of-function mutations in ARID1A
  mPFS: 6.8 months
loss-of-function mutations in KMT2C
  mPFS: 7.0 months
sRCC (sarcomatoid RCC) patients, RECIST 1.1
  Objective response rate: 14%
Tumors harboring PBRM1 mutations
  mPFS: 11.2 months
[1]
  ORR: 20%
  complete responses: 0%
  mPFS: 4.1 months
Within sunitinib treatment arm, 95% CI 0.47, 0.75
  PFS hazard ratio, Angiogenesis signature high vs low: 0.59
Within sunitinib-treated patients, 95% CI 0.51, 0.87
  PFS hazard ratio, PBRM1 mutant vs non-mutant tumors: 0.67

Reference: patent publication US20240410013A1, “METHODS AND COMPOSITIONS FOR CLASSIFYING AND TREATING KIDNEY CANCER” (Genentech, Inc., priority 2021, published 2024)
